Holding throughout (assay type): physicochemical
The nature of series [1]: Thermo-Gravimetric Analysis (TGA). Here is the method: Analyses are carried out on a T.A. instruments TGAQ500 analyzer. Mass calibration is performed with 10 and 100 mg certified masses and the instrument is temperature-calibrated with alumel and nickel standards (Curie points of respectively 154° C. and 354° C.). Samples are exposed to a constant nitrogen stream of 60 mL/min and temperature ranges from 20° C. to 250° C. at a 5° C./min rate. The quantity of product lies between 2 and 5 mg. The powder is deposited in an open aluminum sample pan, which is itself placed in a platinum pan.

A short description of series [2]: Water-Activity Isotherm (DVS), water sorption/desorption at 25° C. Here is the method:
All experiments are performed on a DVS-1 automated gravimetric vapor sorption analyser (Surface Measurement Systems Ltd., London, UK). The DVS-1 measures the uptake and loss of vapor gravimetrically using a Cahn D200 recording ultra-microbalance with a mass resolution of ±0.1 μg. A controlled relative humidity is generated by mixing different proportions of dry and water saturated carrier gas streams (monitored by mass flow controllers). The temperature is maintained constant, ±0.1° C., by enclosing the entire system in a temperature-controlled incubator. A sample size between 4 and 10 mg is used. Prior to being exposed to any water vapor the samples are dried at 0% RH to remove any surface water present and establish a dry, baseline mass. Next, the samples are exposed to an increasing relative humidity raised by a step of 5% RH from 0% to 90% RH.

Series [3] is described as follows: Physical stability of the crystal form on heating, humidity and storage (XRPD). The note with it: for temperature of transformation into another crystal form: A into B, D into E, E into B, G desolvates into D; for desolvation behaviour: slight heating / upon heating. The protocol:
High-resolution diagrams are recorded at ambient conditions on a PANalytical X'Pert Pro MPD powder diffractometer using the Bragg-Brentano (vertical 0-20 configuration) parafocusing geometry coupled with a X'Celerator detector. A sealed copper anode X-ray tube is used, running at 45 kV and 40 mA levels. An incident beam monochromator (Johansson type: a symmetrically cut curved germanium (111) crystal) produces pure Cu Kα1 radiation (λ[…]=1.54060 Å). A thin layer of the product is deposited on a single-crystal silicon wafer, cut out according to Si (510) crystallographic orientation that, by systematic extinction, impedes any Bragg reflection. In order to bring more crystallites into the diffraction position and thus reduce the influence of particle statistics on the measurements, a sample spinner is used. The spinner rotation speed is set at 1 revolution per second. The angular range extends from 2 to 50° in 2θ, with a 0.02° step size in 2θ. A variable counting time from 100 to 2500 seconds per step was used.
XRPD analyses are carried out on a Siemens-Bruker D5000 Matic powder diffractometer using the Bragg-Brentano (vertical θ-2θ configuration) parafocusing geometry. A thin layer of the product is deposited on a single-crystalline silicon wafer, cut out according to Si(510) crystallographic orientation that, by systematic extinction, impedes any Bragg reflection. A sealed cobalt anode X-ray tube running at 40 kV and 30 mA levels is used. Two lines are typically emitted: CoKα1 (λ=1.7890 Å) and CoKα2 (λ=1.7929 Å). […] The primary beam passes through a parallel plate collimator (0.2 mm Soller slits), then through a divergence slit (0.2 mm). A Braun 50 M multicanal linear detector completes the setup. It has a 10°-wide detection window in angle 2θ.

Series [4] in a line: Behaviour under mechanical strain (mortar grinding, jet-milling). The note with it: for effect of jet-milling on the crystalline form: DSC / XRPD. The protocol:
Crystal Form A is of particular interest because of its behaviour under mechanical strain. The effect of 30 seconds of mortar grinding was evaluated. […] The behaviour of amorphous phase present in ground form A was also studied. No recrystallization of the amorphous phase was detected through sorption/desorption of water at 25° C. Nevertheless, maturation of ground samples in pure water for 6 days at room temperature led to partial recrystallization of the amorphous phase into form A.
A particle size close to 5 μm could be reached. The DSC analyses indicate that there is no modification of the crystalline structure before and after jet-milling of Form A.
A particle size close to 5 μm could be reached.

For the compound `COc1cnc(C(=O)Nc2c(Cl)c[n+]([O-])cc2Cl)cc1OCC1CC1` [Crystal Form A, 4-(cyclopropylmethoxy)-N-(3,5-dichloro-1-oxidopyridin-4-yl)-5-methoxypyridine-2-carboxamide], the “temperature beyond which thermal decomposition is observed” value in series [1] was over 190 °C. The TGA weight loss entry in series [1] (from room temperature up to 190° C.) is “no weight loss”. For the same compound, the hygroscopicity result in series [2] (25° C. isotherm) is “not hygroscopic”. Also, the water uptake result in series [2] (25° C., up to 90% of relative humidity (RH)) was “no significant water uptake”. In addition, the “temperature of transformation into another crystal form” value in series [3] (upon heating) is “above 100 °C”. Moreover, in series [4] (30 seconds of mortar grinding), the “amorphous phase after grinding (XRPD)” value is reported as “appearance of amorphous phase was detected” and the “polymorphic transition after grinding (XRPD)” value is reported as “no observed polymorphic transition”. Besides, in series [4], the “particle size reached by jet-milling” value is about 5 μm and the “effect of jet-milling on the crystalline form” value is recorded as “without any impact on the crystalline form”.
Turning to `COc1cnc(C(=O)Nc2c(Cl)c[n+]([O-])cc2Cl)cc1OCC1CC1` [Crystal Form B, 4-(cyclopropylmethoxy)-N-(3,5-dichloro-1-oxidopyridin-4-yl)-5-methoxypyridine-2-carboxamide], in series [1], the “temperature beyond which thermal decomposition is observed” value is over 190 °C.
Turning to `COc1cnc(C(=O)Nc2c(Cl)c[n+]([O-])cc2Cl)cc1OCC1CC1` [Crystal Form C, 4-(cyclopropylmethoxy)-N-(3,5-dichloro-1-oxidopyridin-4-yl)-5-methoxypyridine-2-carboxamide], the behaviour on storage result in series [3] (15 months of storage in ambient conditions) was “transformed into Crystal Form D and amorphous phase”.
For `COc1cnc(C(=O)Nc2c(Cl)c[n+]([O-])cc2Cl)cc1OCC1CC1` [Crystal Form D, 4-(cyclopropylmethoxy)-N-(3,5-dichloro-1-oxidopyridin-4-yl)-5-methoxypyridine-2-carboxamide], in series [1], the “temperature beyond which thermal decomposition is observed” value is over 205 °C. In series [1] (between 20 and 100° C.), this compound returned a TGA weight loss of 0.2%. The TGA weight loss entry in series [1] (between 100 and 205° C.) is “no weight loss”. For the same compound, in series [2] (25° C., at 90% RH), the total water gain is 8.7% and the “total water gain expressed as moles of water” value was 2 moles of water. Also, the “loss of water, last desorption step” value in series [2] (25° C., between 70% and 0% RH, without hysteresis) worked out at 1.3%. For the same compound, the “water desorption, second desorption step” value in series [2] (25° C., between 75% and 70% RH) was found to be 6.4%. Moreover, the “water uptake, second sorption step” value in series [2] (25° C., between 85% and 90% RH) turned out to be 6.9%. Besides, in series [3] (upon heating), the “temperature range in which the form is stable / physically unaltered” value was “up to 110 °C” and the “temperature of transformation into another crystal form” value was found to be 110 °C. In addition, in series [4], the “particle size reached by jet-milling” value is about 5 μm and the “effect of jet-milling on the crystalline form” value is on record as “without any impact on the crystalline form”.
On to `COc1cnc(C(=O)Nc2c(Cl)c[n+]([O-])cc2Cl)cc1OCC1CC1` [Crystal Form E, 4-(cyclopropylmethoxy)-N-(3,5-dichloro-1-oxidopyridin-4-yl)-5-methoxypyridine-2-carboxamide], for which the TGA weight loss in series [1] (between 100 and 170° C.) is 0.8%; in series [1] (from room temperature to 100° C.), “no weight loss”. Further, in series [3] (room conditions), the “stability under room conditions” value was “stable under room conditions”. In addition, the “temperature of transformation into another crystal form” value in series [3] (upon heating) was found to be 140 °C.
For `COc1cnc(C(=O)Nc2c(Cl)c[n+]([O-])cc2Cl)cc1OCC1CC1` [Crystal Form G, 4-(cyclopropylmethoxy)-N-(3,5-dichloro-1-oxidopyridin-4-yl)-5-methoxypyridine-2-carboxamide], in series [3] (upon heating), the “temperature of transformation into another crystal form” value is 70 °C.
In the case of `COc1cnc(C(=O)Nc2c(Cl)c[n+]([O-])cc2Cl)cc1OCC1CC1` [Crystal Form H, 4-(cyclopropylmethoxy)-N-(3,5-dichloro-1-oxidopyridin-4-yl)-5-methoxypyridine-2-carboxamide], in series [3], the desolvation behaviour result was “desolvates easily into Crystal Form D”.
With `COc1cnc(C(=O)Nc2c(Cl)c[n+]([O-])cc2Cl)cc1OCC1CC1` [Crystal Form I, 4-(cyclopropylmethoxy)-N-(3,5-dichloro-1-oxidopyridin-4-yl)-5-methoxypyridine-2-carboxamide], in series [3], the desolvation behaviour result is recorded as “desolvates easily into form D”.

These data come from patent US9533953B2, “Method of preparation of crystal forms of 4-(cyclopropylmethoxy)-n-(3,5-dichloro-1-oxidopyridyn-4-yl)-5-methoxypyridine-2-carboxamide and crystal forms thereof” (SANOFI, priority 2012, dated 2017).
